In paper PMC11206852, “Solubility, pH-Solubility Profile, pH-Rate Profile, and Kinetic Stability of the Tyrosine Kinase Inhibitor, Alectinib” (Pharmaceuticals, 2024):
Entries after “also recorded” stand apart in the source; their conditions may differ.

Tests used:
[1] = short-term (24 h) stability of solution in methanol; type: physicochemical; conditions: room temperature
[2] = known description, no reference given; cited from earlier work
[3] = cited from earlier work
NCI-H2228 cell line = system: NCI-H2228 cell line; parameters: method as in PMID 25205428; conditions: oral administration, cited from earlier work
[4] = parameters: method as in PMID 25153538; conditions: non-fasting conditions; cited from earlier work
[5] = cited from earlier work; remark: listed apart in the source
pH-solubility profile = type: physicochemical; conditions: for solubility at 48 h: aqueous buffer
Experimental: All buffers were at a concentration of 0.05 M. The experiment was performed in the same way as the previous experiment on solubility.

[6] = parameters: method as in PMID 21575866; conditions: compared with free plasma concentration; cited from earlier work
[7] = solubility study in water and different solvents; type: physicochemical; conditions: thermodynamic from solid
Experimental: Then, they were covered with aluminum foil to exclude the light effect. Then, all tubes were put in a water bath at 25 ± 1 °C and 50 rpm for 48 h to reach equilibrium. After that, the samples were filtered using a 0.22 µm filter, and 1 mL was injected into the HPLC. Any sample with a high reading was diluted with the mobile phase.

[8] = sink conditions for dissolution test at pH 6.8 and 4.5; type: physicochemical; conditions: 37 °C, 24 h, dose 150 mg, media M1-M16
Experimental: The sink conditions are necessary to perform a successful dissolution test for oral solid dosage forms. […] Phosphate buffer (pH of 6.8) and acetate buffer (pH of 4.5) were prepared. Then, SLS, Tween 80, and ethanol were tried in different concentrations to achieve the target.

[9] = parameters: method as in PMID 23639470; conditions: 20 to 300 mg every 12 h; cited from earlier work
[10] = pH stability and pH-rate profile; type: physicochemical; conditions: methanolic citrate buffer, pH 3.5, 5 and 6.2
Experimental: A citrate buffer at three pH values was prepared as described above (pH of 3.5, 5, and 6.2). […] The aim was to calculate the rate constant at each pH level and plot it against the pH values.

[11] = photostability in solution and solid state; type: physicochemical
[12] = cited from earlier work; remark: listed apart in the source
[13] = heat and accelerated stability study of solution in methanol; type: physicochemical
Experimental: Then, the rate constant of degradation at each temperature was calculated, and the shelf life of the solution at each temperature was calculated.

CCc1cc2c(cc1N1CCC(N3CCOCC3)CC1)C(C)(C)c1[nH]c3cc(C#N)ccc3c1C2=O.Cl [ALBHCL, 9-ethyl-6,6-dimethyl-8-[4-(morpholin-4-yl)piperidin-1-yl]-11-oxo-6,11-dihydro-5H-benzo[b]carbazole-3-carbonitrile-hydrochloride]
duration of stability of solutions [1]: 24 h | solubility in water, descriptive [2]: practically insoluble | lipophilicity [3]: highly lipophilic | logP ([3]; no method or reference given): 5.5 | tumor regression (NCI-H2228 cell line; NCI-H2228 cell line): notable regression | ED50 of tumor suppression (NCI-H2228 cell line; tumor-bearing mice): 0.46 mg/kg | increase of AUC [4]: 20% | increase of Cmax [4]: 20% | route of most elimination [5]: feces | solubility at 48 h (pH-solubility profile; pH 3.5, citrate buffer 0.05 M): 50 µg/mL | solubility at 48 h (pH-solubility profile; pH 5, citrate buffer 0.05 M): 25.8 µg/mL | stability at pH 1.2 (pH-solubility profile; pH 1.2, chloride buffer, chromatogram after 24 h): showed degradation; also recorded: instability | pH of maximum solubility (pH-solubility profile; pH 1.2 to 10): 3.5 | measured concentrations in the blood-cerebrospinal fluid (CSF) barrier [6]: approximately equal to the free concentration of ALBHCl in plasma | solubility at 48 h ([7]; PEG 400, organic solvent or mixture, PEG400, 25 °C, read-out: solubility): 260 ± 6 µg/mL | solubility at 48 h ([7]; organic solvent or mixture, DMSO, 25 °C, read-out: solubility): 4500 ± 6.1 µg/mL | solubility at 48 h ([7]; organic solvent or mixture, THF, 25 °C, read-out: solubility): 280.9 ± 2.4 µg/mL | solubility at 48 h ([7]; organic solvent or mixture, acetonitrile, 25 °C, read-out: solubility): 150.2 ± 1.1 µg/mL | solubility at 48 h ([7]; organic solvent or mixture, chloroform, 25 °C, read-out: solubility): 620.3 ± 0.58 µg/mL | solubility at 48 h ([7]; organic solvent or mixture, ethanol, 25 °C, read-out: solubility): 210 ± 4.5 µg/mL | solubility at 48 h ([7]; organic solvent or mixture, methanol, 25 °C, read-out: solubility): 1991 ± 7.2 µg/mL | solubility at 48 h ([7]; propylene glycol, organic solvent or mixture, PG, 25 °C, read-out: solubility): 211 ± 5.8 µg/mL | solubility at 48 h ([7]; water, 25 °C, read-out: absolute solubility): 10.3 ± 1.2 µg/mL | dissolution media that fulfilled sink conditions [8]: phosphate buffer 6.8 + 2% SLS (M3), phosphate buffer 6.8 + 5% Tween 80 (M6), acetate buffer 4.5 + 2% SLS (M11), and acetate buffer 4.5 + 5% Tween 80 (M14) | time of peak plasma levels after administration [9]: 2.00 to 4.61 h | effect of pH on stability [10]: increasing the pH would increase stability | remained intact after exposure to light ([11]; solid powder, 36 h light): 82% | recovery from analysis of the powder ([11]; solid powder, light, up to 36 h): 99% | half-life at 50 µg/mL ([11]; solution in methanol exposed to light, solution, light, room temperature, read-out: half-life of photodegradation (converted)): 0.346 days | intact ALBHCL remaining after exposure to light ([11]; solution in methanol, 36 h light): 32% | rate constant of photodegradation (first-order) K ([11]; solution, light): 0.0829 h⁻¹ | adverse drug reaction: drug-induced liver injury [12]: 1.3% | adverse drug reaction: interstitial lung disease [12]: 1.3% | adverse drug reaction: photosensitivity reaction [12]: 5.3% | adverse drug reaction: stomatitis [12]: 3.3% | adverse drug reaction: weight gain [12]: 9.9% | nephrotoxicity [12]: reported in rare cases | bradycardia ([12]; increased exposure, ref Pruis et al. 17): linked to bradycardia | rate constant K1 (at 25 °C) ([13]; extrapolated to 25 °C): 0.00075 h⁻¹ | half-life ([13]; solution in methanol, 25 °C): 38.5 days | shelf-life of solution ([13]; solution in methanol, 25 °C, 0.105/K25): 140 h | rate constant of degradation (first-order) K50 °C ([13]; solution in methanol, 50 °C): 0.01013 h⁻¹ | rate constant of degradation (first-order) K55 °C ([13]; solution in methanol, 55 °C): 0.01382 h⁻¹ | rate constant of degradation (first-order) K60 °C ([13]; solution in methanol, 60 °C): 0.02579 h⁻¹
